# Laboratory results published in patent publication US11045457B2, “Piperidinyl-3-(aryloxy)propanamides and propanoates” (priority 2018, dated 2021).
# Biological target: SSTR4 (Homo sapiens (Human), UniProt P31391)
# Test: Inhibition of forskolin stimulated cAMP in CHO-K1 cells overexpressing SSTR4
# Format: cell-based
# Conditions: not given
# Description: Inhibition of Forskolin Stimulated cAMP in Cells Overexpressing SSTR4
# This cell-based assay measures the ability of compounds to inhibit forskolin stimulated cAMP in CHO-K1 cells overexpressing SSTR4. CHO-K1 cells overexpressing SSTR4 (CHO-SSTR4) are purchased from DiscoveRx (product code 95-0059C2). The CHO-SSTR4 cells are maintained in F12K media with 10% Fetal Bovine Serum (Hyclone), 1% Pen/Strep (Life Technologies), and 800 μg/mL G418 (Life Technologies). […] The next day, the culture media is removed from the cells and the cells are washed (added then removed) with Kreb's Ringer Buffer (ZenBio, KRB-1000 mL). […] The cells are incubated in […] for 30 minutes at room temperature. Cellular cAMP levels are detected with a HTRF LANCE Ultra cAMP kit (Perkin Elmer, catalog number TRF0264).
# The assay is performed in accordance with the manufacturer's instructions. Five μL of diluted Eu-W8044 labeled streptavidin (dilution: 1:50 in cAMP Detection Buffer) is added to each well. Then 5 μL of diluted biotin cAMP (dilution: 1:150 in cAMP Detection Buffer) is added to each well. The plates are covered and allowed to incubate for 60 minutes at room temperature on a shaker. […] The pEC50 values are generated using Activity Base for Screening Data Management.
# SSTR4, sequence (P31391 whole entry): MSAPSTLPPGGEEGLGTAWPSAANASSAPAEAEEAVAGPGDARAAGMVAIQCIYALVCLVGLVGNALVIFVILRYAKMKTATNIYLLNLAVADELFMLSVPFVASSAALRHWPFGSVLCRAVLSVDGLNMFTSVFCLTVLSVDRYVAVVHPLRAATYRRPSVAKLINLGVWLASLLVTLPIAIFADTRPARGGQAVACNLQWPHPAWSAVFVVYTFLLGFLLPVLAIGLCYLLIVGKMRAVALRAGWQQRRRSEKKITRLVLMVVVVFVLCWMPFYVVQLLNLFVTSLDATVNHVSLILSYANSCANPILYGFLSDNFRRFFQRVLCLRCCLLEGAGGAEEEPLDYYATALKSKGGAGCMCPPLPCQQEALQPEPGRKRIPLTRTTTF
row,Compound,SSTR4 Activity pEC50
1,"Cc1cnc(OCC(C)(C)C(=O)N[C@H]2CCN(C)C[C@H]2C)c(C)c1 (relative stereo) [Example 32, cis-N-(1,3-dimethylpiperidin-4-yl)-3-((3,5-dimethylpyridin-2-yl)oxy)-2,2-dimethylpropanamide]",5.8
2,"CC(C)[C@@H]1CN(C)CC[C@@H]1NC(=O)C(C)(C)COc1ncccc1C(F)(F)F (relative stereo) [Example 34, cis-N-(3-isopropyl-1-methylpiperidin-4-yl)-2,2-dimethyl-3-((3-(trifluoromethyl)pyridin-2-yl)oxy)propanamide]",6.1

# Same assay, conditions: read-out: SSTR4 Activity pEC50 (converted)
row,Compound,EC50 [µM]
1,"C[C@@H]1CN(C)CC[C@@H]1NC(=O)C(C)(C)COc1ncccc1C(F)(F)F (racemic) [Example 12, cis-N-(1,3-dimethylpiperidin-4-yl)-2,2-dimethyl-3-((3-(trifluoromethyl)pyridin-2-yl)oxy)propanamide]",0.126
2,"C[C@@H]1CN(C)CC[C@@H]1NC(=O)C(C)(C)COc1ncccc1OC(F)(F)F (racemic) [Example 14, cis-N-(1,3-dimethylpiperidin-4-yl)-2,2-dimethyl-3-((3-(trifluoromethoxy)pyridin-2-yl)oxy)propanamide]",0.0794
3,"C[C@@H]1CN(C)CC[C@@H]1NC(=O)C(C)(C)COc1ncccc1C1CC1 (racemic) [Example 21, cis-3-((3-cyclopropylpyridin-2-yl)oxy)-N-(1,3-dimethylpiperidin-4-yl)-2,2-dimethylpropanamide]",0.0251
4,"CC(C)[C@@H]1CN(C)CC[C@H]1NC(=O)C(C)(C)COc1ncccc1C(F)(F)F (relative stereo) [Example 33, trans-N-(3-isopropyl-1-methylpiperidin-4-yl)-2,2-dimethyl-3-((3-(trifluoromethyl)pyridin-2-yl)oxy)propanamide]",0.000794
5,"Cc1cccnc1OCC(C)(C)C(=O)N[C@@H]1CN(C)C[C@H]1c1ccc(Cl)cc1 (relative stereo) [Example 55, trans-N-(4-(4-chlorophenyl)-1-methylpyrrolidin-3-yl)-2,2-dimethyl-3-((3-methylpyridin-2-yl)oxy)propanamide]",0.0316
6,"CN1C[C@@H](NC(=O)C(C)(C)COc2ncccc2C(F)(F)F)[C@H](c2ccc(Cl)cc2)C1 (relative stereo) [Example 56, trans-N-(4-(4-chlorophenyl)-1-methylpyrrolidin-3-yl)-2,2-dimethyl-3-((3-(trifluoromethyl)pyridin-2-yl)oxy)propanamide]",0.0251
7,"Cc1cccnc1OCC(C)(C)C(=O)N[C@@H]1CN(C)C[C@H]1c1ccc(C(F)(F)F)nc1 (relative stereo) [Example 57, trans-2,2-dimethyl-N-(1-methyl-4-(6-(trifluoromethyl)pyridin-3-yl)pyrrolidin-3-yl)-3-((3-methylpyridin-2-yl)oxy)propanamide]",0.0631
8,"CN1C[C@@H](NC(=O)C(C)(C)COc2ncccc2C(F)(F)F)[C@H](c2ccc(C(F)(F)F)nc2)C1 (relative stereo) [Example 59, trans-2,2-dimethyl-N-(1-methyl-4-(6-(trifluoromethyl)pyridin-3-yl)pyrrolidin-3-yl)-3-((3-(trifluoromethyl)pyridin-2-yl)oxy)propanamide]",0.0316
9,"Cc1ccc([C@@H]2CN(C)C[C@H]2NC(=O)C(C)(C)COc2ncccc2C)cn1 (relative stereo) [Example 60, trans-2,2-dimethyl-N-(1-methyl-4-(6-methylpyridin-3-yl)pyrrolidin-3-yl)-3-((3-methylpyridin-2-yl)oxy)propanamide]",0.0794
10,"Cc1ccc([C@@H]2CN(C)C[C@H]2NC(=O)C(C)(C)COc2ncccc2C2CC2)cn1 (relative stereo) [Example 61, trans-3-((3-cyclopropylpyridin-2-yl)oxy)-2,2-dimethyl-N-(1-methyl-4-(6-methylpyridin-3-yl)pyrrolidin-3-yl)propanamide]",0.0631
11,"Cc1cnc(OCC(C)(C)C(=O)N[C@@H]2CN(C)C[C@H]2c2ccc(Cl)cc2)c(C)c1 (relative stereo) [Example 93, trans-N-(4-(4-chlorophenyl)-1-methylpyrrolidin-3-yl)-3-((3,5-dimethylpyridin-2-yl)oxy)-2,2-dimethylpropanamide]",0.2
12,"CN1C[C@@H](NC(=O)C(C)(C)COc2ncccc2C2CC2)[C@H](c2ccc(Cl)cc2)C1 (relative stereo) [Example 94, trans-N-(4-(4-chlorophenyl)-1-methylpyrrolidin-3-yl)-3-((3-cyclopropylpyridin-2-yl)oxy)-2,2-dimethylpropanamide]",0.02
13,"CCO[C@@H]1CN(C)C[C@H]1NC(=O)C(C)(C)COc1ccccc1CC (relative stereo) [Example 95, trans-N-(4-ethoxy-1-methylpyrrolidin-3-yl)-3-(2-ethylphenoxy)-2,2-dimethylpropanamide]",0.0794
14,"CCc1ccccc1OCC(C)(C)C(=O)N[C@@H]1CN(C)C[C@H]1OC (relative stereo) [Example 96, trans-3-(2-ethylphenoxy)-N-(4-methoxy-1-methylpyrrolidin-3-yl)-2,2-dimethylpropanamide]",0.2
15,"Cc1ccc([C@@H]2CN(CC#N)C[C@H]2NC(=O)C(C)(C)COc2ncccc2C(F)(F)F)cn1 (relative stereo) [Example 103, trans-N-(1-(cyanomethyl)-4-(6-methylpyridin-3-yl)pyrrolidin-3-yl)-2,2-dimethyl-3-((3-(trifluoromethyl)pyridin-2-yl)oxy)propanamide]",0.631
16,"CN1CC[C@@H](NC(=O)C(C)(C)COc2ncccc2OC(F)(F)F)[C@H](c2cnn(C(F)F)c2)C1 (relative stereo) [Example 126, trans-N-(3-(1-(difluoromethyl)-1H-pyrazol-4-yl)-1-methylpiperidin-4-yl)-2,2-dimethyl-3-((3-(trifluoromethoxy)pyridin-2-yl)oxy)propanamide]",0.00158
17,"CC(C)(COc1ncccc1C(F)(F)F)C(=O)N[C@@H]1CNC[C@H]1F (relative stereo) [Example 130, trans-N-(4-fluoropyrrolidin-3-yl)-2,2-dimethyl-3-((3-(trifluoromethyl)pyridin-2-yl)oxy)propanamide]",0.251
18,"C[C@H]1C[C@H](NC(=O)C(C)(C)COc2ncccc2C(F)(F)F)CN1C (relative stereo) [Example 133, trans-N-(1,5-dimethylpyrrolidin-3-yl)-2,2-dimethyl-3-((3-(trifluoromethyl)pyridin-2-yl)oxy)propanamide]",0.631
19,"C[C@@H]1C[C@H](NC(=O)C(C)(C)COc2ncccc2C(F)(F)F)CN1C (relative stereo) [Example 134, cis-N-(1,5-dimethylpyrrolidin-3-yl)-2,2-dimethyl-3-((3-(trifluoromethyl)pyridin-2-yl)oxy)propanamide]",2
20,"C[C@H]1C[C@H](NC(=O)C(C)(C)COc2ncccc2OC(F)(F)F)CCN1C (relative stereo) [Example 135, trans-N-(1,2-dimethylpiperidin-4-yl)-2,2-dimethyl-3-((3-(trifluoromethoxy)pyridin-2-yl)oxy)propanamide]",0.0251
21,"CC[C@H]1[C@H](NC(=O)C(C)(C)COc2ncccc2C(F)(F)F)CCN1C (relative stereo) [Example 149, trans-N-(2-ethyl-1-methylpyrrolidin-3-yl)-2,2-dimethyl-3-((3-(trifluoromethyl)pyridin-2-yl)oxy)propanamide]",0.126
